Reference: patent US11667649B2, “Heteroaromatic macrocyclic ether chemotherapeutic agents” (Nuvalent, Inc., priority 2020, dated 2023)

Tested on: TPM3-NTRK1-wt IC50 / primary target (e.g. CD74-ROS1-wt) IC50, Ba/F3 cells
Experiment: Cell assay TRKA selectivity (TRKA potency divided by primary target potency)
Format: cell-based
Details: for TPM3-NTRK1-wt/CD74-ROS1-G2032R: TRKA selectivity ratio: TPM3-NTRK1-wt IC50 / CD74-ROS1-G2032R IC50, Ba/F3 cells; for TPM3-NTRK1-wt/CD74-ROS1-wt: TRKA selectivity ratio: TPM3-NTRK1-wt IC50 / CD74-ROS1-wt IC50, Ba/F3 cells; for TPM3-NTRK1-wt/EML4-ALK-L1196M-G1202R: TRKA selectivity ratio: TPM3-NTRK1-wt IC50 / EML4-ALK-L1196M-G1202R IC50, Ba/F3 cells; for TPM3-NTRK1-wt/EML4-ALK-wt: TRKA selectivity ratio: TPM3-NTRK1-wt IC50 / EML4-ALK-wt IC50, Ba/F3 cells
How it was run: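 Ratio of TRKA to primary-target cellular IC50 (e.g. TPM3-NTRK1-wt/CD74-ROS1-wt), grouped into bins A >30, B >10, C ≥1, D <1. Each IC50 came from engineered Ba/F3 fusion lines grown without IL-3, dosed for 72 h and read as CellTiter-Glo luminescence, with a four-parameter logistic fit.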

SMILES | TPM3-NTRK1-wt/CD74-ROS1-G2032R | TPM3-NTRK1-wt/CD74-ROS1-wt | TPM3-NTRK1-wt/EML4-ALK-L1196M-G1202R | TPM3-NTRK1-wt/EML4-ALK-wt
CCc1ncn2c1-c1cnc(N)c(c1)O[C@H](C)c1cc(F)ccc1-c1nn(C)cc1C2 [Example 50, (19R)-3-ethyl-16-fluoro-10,19-dimethyl-20-oxa-4,6,10,11,23-pentaazapentacyclo[19.3.1.0^2,^6.0^8,^12.0^13,^18]pentacosa-1(24),2,4,8,11,13,15,17,21(25),22-decaen-22-amine] | A (bin A for very high selectivity, ratio>30-fold) | A (bin A for very high selectivity, ratio>30-fold) | B (bin B for high selectivity, ratio>10-fold) | A (bin A for very high selectivity, ratio>30-fold)
Cc1nn(CC2CC2)c2c1Cc1c(nn(C)c1Cl)-c1ccc(F)cc1[C@@H](C)Oc1cc-2cnc1N [Example 54, (19R)-9-chloro-3-(cyclopropylmethyl)-16-fluoro-5,10,19-trimethyl-20-oxa-3,4,10,11,23-pentaazapentacyclo[19.3.1.0^2,^6.0^8,^12.0^13,^18]pentacosa-1(24),2(6),4,8,11,13,15,17,21(25),22-decaen-22-amine] | A (bin A for very high selectivity, ratio>30-fold) | A (bin A for very high selectivity, ratio>30-fold) | B (bin B for high selectivity, ratio>10-fold) | A (bin A for very high selectivity, ratio>30-fold)
C[C@H]1Oc2cc(cnc2N)-c2c(cnn2CC2(C)CC2)Cc2cn(C)nc2-c2ccc(F)cc21 [Example 159, (19R)-16-fluoro-10,19-dimethyl-3-[(1-methylcyclopropyl)methyl]-20-oxa-3,4,10,11,23-pentaazapentacyclo[19.3.1.0^2,^6.0^8,^12.0^13,^18]pentacosa-1(24),2(6),4,8,11,13,15,17,21(25),22-decaen-22-amine] | A (bin A for very high selectivity, ratio>30-fold) | A (bin A for very high selectivity, ratio>30-fold) | B (bin B for high selectivity, ratio>10-fold) | A (bin A for very high selectivity, ratio>30-fold)
CCn1ncc2c1-c1cnc(N)c(c1)OC(C)c1cc(F)ccc1-n1cncc1C2 (stereo not drawn) [Example 38, 3-ethyl-16-fluoro-19-methyl-20-oxa-3,4,10,12,23-pentaazapentacyclo[19.3.1.0^2,^6.0^8,^12.0^13,^18]pentacosa-1(24),2(6),4,8,10,13,15,17,21(25),22-decaen-22-amine] | A (bin A for very high selectivity, ratio>30-fold) | A (bin A for very high selectivity, ratio>30-fold) | C (bin C for moderate selectivity, ratio≥1) | B (bin B for high selectivity, ratio>10-fold)
CCn1nc(OC)c2c1-c1cnc(N)c(c1)O[C@H](C)c1cc(F)ccc1-c1nn(C)cc1C2 [Example 181, (19R)-3-ethyl-16-fluoro-5-methoxy-10,19-dimethyl-20-oxa-3,4,10,11,23-pentaazapentacyclo[19.3.1.0^2,^6.0^8,^12.0^13,^18]pentacosa-1(24),2(6),4,8,11,13,15,17,21(25),22-decaen-22-amine] | A (bin A for very high selectivity, ratio>30-fold) | A (bin A for very high selectivity, ratio>30-fold) | C (bin C for moderate selectivity, ratio≥1) | A (bin A for very high selectivity, ratio>30-fold)
CC(C)n1nc2c(c1C#N)-c1cnc(N)c(c1)O[C@H](C)c1cc(F)ccc1-n1nccc1C2 [Example 118, (19R)-22-amino-16-fluoro-19-methyl-4-(propan-2-yl)-20-oxa-4,5,11,12,23-pentaazapentacyclo[19.3.1.0^2,^6.0^8,^12.0^13,^18]pentacosa-1(24),2,5,8,10,13,15,17,21(25),22-decaene-3-carbonitrile] | D (bin D for low selectivity, ratio<1) | A (bin A for very high selectivity, ratio>30-fold) | D (bin D for low selectivity, ratio<1) | A (bin A for very high selectivity, ratio>30-fold)
CCn1ncc2c1-c1cnc(N)c(c1)OCc1cc(F)ccc1-c1nccn1C2 [Example 34, 3-ethyl-16-fluoro-20-oxa-3,4,8,11,23-pentaazapentacyclo[19.3.1.0^2,^6.0^8,^12.0^13,^18]pentacosa-1(24),2(6),4,9,11,13,15,17,21(25),22-decaen-22-amine] | A (bin A for very high selectivity, ratio>30-fold) | A (bin A for very high selectivity, ratio>30-fold) | B (bin B for high selectivity, ratio>10-fold) | A (bin A for very high selectivity, ratio>30-fold)
Cn1cc2c(n1)-c1ccc(F)cc1COc1cc(cnc1N)-c1c(cnn1C1CCC1)C2 [Example 7, 3-cyclobutyl-16-fluoro-10-methyl-20-oxa-3,4,10,11,23-pentaazapentacyclo[19.3.1.0^2,^6.0^8,^12.0^13,^18]pentacosa-1(24),2(6),4,8,11,13,15,17,21(25),22-decaen-22-amine] | A (bin A for very high selectivity, ratio>30-fold) |  | A (bin A for very high selectivity, ratio>30-fold) | 
C[C@H]1Oc2cc(cnc2N)-c2c(C#N)nnn2Cc2cccnc2-c2ccc(F)cc21 [Example 25, (20R)-23-amino-17-fluoro-20-methyl-21-oxa-4,5,6,12,24-pentaazapentacyclo[20.3.1.0^2,^6.0^8,^13.0^14,^19]hexacosa-1(25),2,4,8(13),9,11,14,16,18,22(26),23-undecaene-3-carbonitrile] | A (bin A for very high selectivity, ratio>30-fold) | A (bin A for very high selectivity, ratio>30-fold) | B (bin B for high selectivity, ratio>10-fold) | A (bin A for very high selectivity, ratio>30-fold)
C[C@H]1Oc2cc(cnc2N)-c2c(C#N)nn(C)c2Cc2cn(C)nc2-c2ccc(F)cc21 [Example 21, (19R)-22-amino-16-fluoro-5,10,19-trimethyl-20-oxa-4,5,10,11,23-pentaazapentacyclo[19.3.1.0^2,^6.0^8,^12.0^13,^18]pentacosa-1(24),2(6),3,8,11,13,15,17,21(25),22-decaene-3-carbonitrile] | A (bin A for very high selectivity, ratio>30-fold) | A (bin A for very high selectivity, ratio>30-fold) | B (bin B for high selectivity, ratio>10-fold) | A (bin A for very high selectivity, ratio>30-fold)
C[C@H]1Oc2cc(cnc2N)-c2c(nn(C)c2CC2CC2)Cc2cn(C)nc2-c2ccc(F)cc21 [Example 179, (19R)-3-(cyclopropylmethyl)-16-fluoro-4,10,19-trimethyl-20-oxa-4,5,10,11,23-pentaazapentacyclo[19.3.1.0^2,^6.0^8,^12.0^13,^18]pentacosa-1(24),2,5,8,11,13,15,17,21(25),22-decaen-22-amine] | A (bin A for very high selectivity, ratio>30-fold) | A (bin A for very high selectivity, ratio>30-fold) | A (bin A for very high selectivity, ratio>30-fold) | A (bin A for very high selectivity, ratio>30-fold)
CCn1ncc2c1-c1cnc(N)c(c1)O[C@H](C)c1cc(F)ccc1-c1onc(C)c1C2 [Example 161, (19R)-3-ethyl-16-fluoro-9,19-dimethyl-11,20-dioxa-3,4,10,23-tetraazapentacyclo[19.3.1.0^2,^6.0^8,^12.0^13,^18]pentacosa-1(24),2(6),4,8(12),9,13,15,17,21(25),22-decaen-22-amine] | C (bin C for moderate selectivity, ratio≥1) | C (bin C for moderate selectivity, ratio≥1) | D (bin D for low selectivity, ratio<1) | C (bin C for moderate selectivity, ratio≥1)
C[C@H]1Oc2cc(cnc2N)-c2c(C#N)nn(C)c2Cc2cc(F)cnc2-c2ccc(F)cc21 [Example 105, (20R)-23-amino-10,17-difluoro-5,20-dimethyl-21-oxa-4,5,12,24-tetraazapentacyclo[20.3.1.0^2,^6.0^8,^13.0^14,^19]hexacosa-1(25),2(6),3,8(13),9,11,14,16,18,22(26),23-undecaene-3-carbonitrile] | A (bin A for very high selectivity, ratio>30-fold) | A (bin A for very high selectivity, ratio>30-fold) | B (bin B for high selectivity, ratio>10-fold) | A (bin A for very high selectivity, ratio>30-fold)
C[C@H]1Oc2cc(cnc2N)-c2c(C(F)F)cnn2Cc2cc(F)cnc2-c2ccc(F)cc21 [Example 17, (20R)-3-(difluoromethyl)-10,17-difluoro-20-methyl-21-oxa-5,6,12,24-tetraazapentacyclo[20.3.1.0^2,^6.0^8,^13.0^14,^19]hexacosa-1(25),2,4,8(13),9,11,14,16,18,22(26),23-undecaen-23-amine] | B (bin B for high selectivity, ratio>10-fold) | A (bin A for very high selectivity, ratio>30-fold) | D (bin D for low selectivity, ratio<1) | B (bin B for high selectivity, ratio>10-fold)
